Series [1] is described as follows: Phase I stability in mouse liver microsomes. The series is classed as in vitro ADME. To be noted: 1 µM, 0.5 mg/mL microsomes. The method, then: (§1) APHAD S.r.l (Buccinasco, MI, Italy) performed all evaluations. Detailed protocols are reported in the extended methods section.
(§2) Phase I stability in human and mouse liver microsomes. The metabolic stability of K4 and K5 was evaluated after incubation with mouse and human liver microsomes. Briefly, the 2 compounds were dissolved in DMSO and pre-incubated, at the final concentration of 1µM, for 10 min at 37°C in potassium phosphate buffer 50 mM, pH 7.4, 3 mM MgCl2, with mouse and human liver microsomes (Sigma) at the final concentration of 0.5 mg/mL. After the pre-incubation period, reactions were started by adding the cofactors mixture (NADP, Glc6P, Glc6P-DH in 2% Sodium bicarbonate); samples were taken at time 0, 10, 20, 30, and 60 min, and added to ACN with Verapamil 0.1 µM as Internal Standard (IS) to stop the reaction. After centrifugation, the supernatants were analyzed using LC-MS/MS. A control sample without cofactors was added to check the stability of test compounds in the matrix after 60 min. 7-Ethoxycoumarin (7-EC) and propranolol were added as positive reference standards. Samples were analyzed on Acquity UPLC (Waters) coupled with an API 3200 Triple Quadrupole ABSciex. […] The percent of the area of the test compound remaining at the various incubation times was calculated based on the area of the compound at time 0 min. […]
(Liver microsomes are a subcellular fraction often used to study metabolism.)

The nature of series [2]: Phase I stability in human liver microsomes. It counts as in vitro ADME. The following applies: 1 µM, 0.5 mg/mL microsomes. As for the experimental part: as §1, §2
Series [3] is described as follows: Bidirectional permeability in Caco-2 cells. It counts as in vitro ADME. To be noted: 5 µM, HBSS pH 7.4, 2 hours. The method, then:
as §1
Permeability in Caco-2 cells. To evaluate the bidirectional permeability of the 2 compounds, Caco-2 cells (ECACC, ReadyCells, Barcellona, Spain), considered a reference cellular line for in vitro preclinical evaluation of oral dosage products, were used. These cells are cultured in monolayers, which become differentiated polarized epithelial cells after 21 days, expressing tight junctions, microvilli, intracellular metabolic enzymes, and transmembrane transporters such as BCRP, MDR1, and MRP2 (an artificial model equivalent to the intestinal epithelium). […] At the end of the experiment, the integrity of the cellular junction was measured by incubating the Lucifer yellow (LY) at the apical side (at the concentration of 0.02 mg/mL in MEM medium) and with MEM medium in the basolateral compartment for 1 hour at 37°C. At the end of incubation, fluorescence was read on a fluorimeter at λ 430-538nm. Samples were analyzed on a UPLC Acquity (Waters) coupled with an API 3200 Triple Quadrupole AB Sciex. […] The apparent permeability (Papp), the efflux ratio (ER), and the Recovery (R) were calculated to allow for estimation of metabolism and non-specific binding. […] Data are expressed as mean of n=2 (± SD).

The target in series [4] is GRP94 (Homo sapiens, UniProt P14625). The experiment in a line: Cellular thermal shift assay (CETSA) on cellular lysates, GRP94. The following applies: 46°C, compound 0.5 mM.
GRP94, sequence (P14625 22-803): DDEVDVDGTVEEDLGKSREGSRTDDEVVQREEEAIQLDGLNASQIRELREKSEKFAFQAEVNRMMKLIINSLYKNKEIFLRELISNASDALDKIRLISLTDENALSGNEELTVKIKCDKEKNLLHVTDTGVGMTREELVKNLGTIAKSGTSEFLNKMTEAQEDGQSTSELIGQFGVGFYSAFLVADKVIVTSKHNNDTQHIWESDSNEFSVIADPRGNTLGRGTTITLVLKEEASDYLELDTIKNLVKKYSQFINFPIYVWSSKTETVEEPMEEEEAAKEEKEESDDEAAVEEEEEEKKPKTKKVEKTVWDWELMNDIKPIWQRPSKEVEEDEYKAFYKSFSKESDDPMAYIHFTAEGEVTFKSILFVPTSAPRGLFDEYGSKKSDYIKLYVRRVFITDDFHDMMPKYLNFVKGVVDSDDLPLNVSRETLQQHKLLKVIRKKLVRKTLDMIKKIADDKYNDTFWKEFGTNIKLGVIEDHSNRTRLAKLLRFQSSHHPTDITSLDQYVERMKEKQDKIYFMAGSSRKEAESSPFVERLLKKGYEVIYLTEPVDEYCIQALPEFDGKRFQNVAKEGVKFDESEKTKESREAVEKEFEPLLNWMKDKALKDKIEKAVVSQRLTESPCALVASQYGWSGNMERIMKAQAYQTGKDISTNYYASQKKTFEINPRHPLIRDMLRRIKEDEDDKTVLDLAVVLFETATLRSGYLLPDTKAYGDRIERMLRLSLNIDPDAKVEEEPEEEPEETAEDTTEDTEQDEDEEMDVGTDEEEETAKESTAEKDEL
Procedure: (§3) Cellular Thermal Shift Assay (CETSA). […] Briefly, the cellular extract was lysed in RIPA buffer (10 mM Tris-HCl pH 7.4, 250 mM NaCl, 1% NP40/IGEPAL, 1% DOC, 0.01% SDS, 0.01% Glycerol, supplemented with protease/phosphatase inhibitor, PI/PhI mix and 2 mM DTT) and protein concentration was determined by a BCA kit (Pierce, Life Technologies, TFS, Waltham, MA, USA). Samples were homogenized by 3 cycles of freeze-thawing using liquid nitrogen and centrifuged at 13000 rpm at 4 °C for 30 min to separate the soluble fraction from the debris.
(§4) Following the supplier's recommendations, samples were loaded into the proper cartridge (12- 230 kDa Wes/Jess Separation Modules, ProteinSimple, Biotechne, Minneapolis, MN, USA). HSP90α (1:50, MsMAb, Abcam), HSP90β (1:50, RbMAb, Abcam), GRP94 (1:50, RbMAb, Abcam), TRAP1 (1:50, MsMAb, Abcam), α-Tubulin (1:500, MsMAb, Abcam), and β-Actin (1:500, RbMAb, Abcam) were used as primary antibodies. Secondary antibodies were Anti-Mouse Secondary HRP and Anti-Rabbit Secondary HRP (ProteinSimple, Biotechne, Minneapolis, MN, USA).
Series [5] concerns the target T1, TRAP1 (Homo sapiens, UniProt Q12931).
T1 sequence (Q12931 60-704): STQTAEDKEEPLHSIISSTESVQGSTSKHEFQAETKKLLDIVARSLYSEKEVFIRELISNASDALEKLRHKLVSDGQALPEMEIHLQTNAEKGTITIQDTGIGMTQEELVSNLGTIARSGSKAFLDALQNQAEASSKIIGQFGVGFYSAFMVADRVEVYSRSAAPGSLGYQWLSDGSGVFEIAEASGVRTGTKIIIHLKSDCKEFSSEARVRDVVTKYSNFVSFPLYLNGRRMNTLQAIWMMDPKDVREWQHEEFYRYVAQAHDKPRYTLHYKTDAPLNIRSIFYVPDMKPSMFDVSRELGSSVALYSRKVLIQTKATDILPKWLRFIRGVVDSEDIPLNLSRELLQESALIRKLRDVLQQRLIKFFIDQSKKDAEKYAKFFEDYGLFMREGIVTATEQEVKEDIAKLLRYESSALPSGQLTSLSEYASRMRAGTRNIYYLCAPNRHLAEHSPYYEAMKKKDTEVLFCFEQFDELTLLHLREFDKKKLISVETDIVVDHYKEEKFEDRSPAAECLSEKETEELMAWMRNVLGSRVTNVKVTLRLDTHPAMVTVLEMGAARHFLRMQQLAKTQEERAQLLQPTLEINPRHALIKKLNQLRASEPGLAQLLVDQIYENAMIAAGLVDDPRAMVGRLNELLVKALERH
The experiment in a line: Cellular thermal shift assay (CETSA) on cellular lysates, TRAP1. To be noted: 46°C, compound 0.5 mM.
Procedure: as §3, §4

Series [6] concerns the target HSP90α (Homo sapiens, UniProt P07900). The experiment in a line: Cellular thermal shift assay (CETSA) on cellular lysates, HSP90α. The following applies: 46°C, compound 0.5 mM.
Procedure: as §3, §4
Series [7] concerns the target HSP90β (Homo sapiens, UniProt P08238). The experiment in a line: Cellular thermal shift assay (CETSA) on cellular lysates, HSP90β. To be noted: 46°C, compound 0.5 mM.
Procedure: as §3, §4

HSP90β, sequence (P08238 whole entry): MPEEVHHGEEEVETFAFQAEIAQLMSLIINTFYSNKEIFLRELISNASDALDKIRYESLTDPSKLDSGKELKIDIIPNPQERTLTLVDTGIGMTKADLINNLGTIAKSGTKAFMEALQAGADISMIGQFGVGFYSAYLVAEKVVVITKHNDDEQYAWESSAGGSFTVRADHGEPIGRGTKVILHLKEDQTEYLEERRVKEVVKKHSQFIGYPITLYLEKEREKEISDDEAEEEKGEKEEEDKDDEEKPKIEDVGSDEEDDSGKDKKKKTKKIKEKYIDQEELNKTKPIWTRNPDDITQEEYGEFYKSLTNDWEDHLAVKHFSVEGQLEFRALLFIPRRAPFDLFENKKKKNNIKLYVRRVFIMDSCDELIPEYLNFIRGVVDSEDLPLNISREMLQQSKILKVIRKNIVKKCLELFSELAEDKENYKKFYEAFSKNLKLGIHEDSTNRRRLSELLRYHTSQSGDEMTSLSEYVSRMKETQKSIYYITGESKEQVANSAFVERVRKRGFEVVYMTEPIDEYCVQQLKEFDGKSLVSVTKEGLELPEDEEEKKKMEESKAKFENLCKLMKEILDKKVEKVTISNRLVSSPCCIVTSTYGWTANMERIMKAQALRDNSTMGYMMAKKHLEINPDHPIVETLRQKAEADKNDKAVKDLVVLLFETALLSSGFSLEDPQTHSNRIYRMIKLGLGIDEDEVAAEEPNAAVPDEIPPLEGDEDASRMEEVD

Consider `CC(C)(C)S(=O)(=O)C/C(N)=N/OS(=O)(=O)c1ccc(F)cc1F` [Compound K4, (Z)-N'-[(2,4-difluorobenzenesulfonyl)oxy]-2-(2-methylpropane-2-sulfonyl)ethanimidamide], for which, in series [1], the “clearance in mouse microsomes” value is “medium clearance”. Moreover, the “metabolic stability in human microsomes” value in series [2] is “stable”. The Caco-2 bidirectional permeability entry in series [3] was “no K4 signal was detected”. In addition, the “stabilization of GRP94 in CETSA” value in series [4] is recorded as “did not observe a stabilization”. In series [5], the “stabilization of TRAP1 in CETSA” value was “did not observe a stabilization”. The “interaction / stabilization of HSP90α in CETSA” value in series [6] was “potent and selective interaction”. In addition, the “stabilization of HSP90β in CETSA” value in series [7] was “did not observe a stabilization”.

With `Cc1ccccc1-n1c(=O)n(Cc2ccccc2)c(=O)c2[nH]cnc21` [Compound K5, 1-benzyl-3-(2-methylphenyl)-7H-purine-2,6-dione], the “clearance in mouse microsomes” value in series [1] is recorded as “medium clearance”. Further, the “metabolic stability in human microsomes” value in series [2] is given as “stable”. In series [3], the Caco-2 bidirectional permeability result is listed as “excellent permeability in both directions”. Further, in series [4], the “stabilization of GRP94 in CETSA” value was “did not observe a stabilization”. In series [5], the “stabilization of TRAP1 in CETSA” value is “did not observe a stabilization”. In addition, the “interaction / stabilization of HSP90α in CETSA” value in series [6] was “potent and selective interaction”. The “stabilization of HSP90β in CETSA” value in series [7] is listed as “did not observe a stabilization”.

Values taken from paper PMC12266748, “A Xanthine Derivative With Novel Heat Shock Protein 90‐Alpha Inhibitory and Senolytic Properties” (Aging Cell, 2025).
